Measured values taken from patent US20260256780A1, “COMPOSITIONS FOR INDUCING RAS GTP HYDROLYSIS AND USES THEREOF” (Revolution Medicines, Inc., priority 2023, published 2026).

What was measured:
[1] = target: T1, GTP-loaded KRAS proteins (residue 1-169 of KRAS4B) (Homo sapiens, UniProt P01116, G12V); assay: RAS GTP hydrolysis rate assay (GTPase-Glo) with cyclophilin A; assay type: biochemical; conditions: bound in tri-complex with cyclophilin A; in some embodiments KRAS^G12V is the isoform used
T1 construct: recombinant KRAS proteins (residue 1-169 of KRAS4B); His6 (TEV protease-cleavable) (cleaved yes); made in house; host or cells: E. coli
Protocol: (§1) The rate of RAS GTP hydrolysis was assayed in the presence of various KRAS mutations. To assess GTP hydrolysis activity, recombinant KRAS proteins (residue 1-169 of KRAS4B) were expressed in E. coli and purified using a TEV protease-cleavable His6-tag and Ni^2+ affinity chromatography. The His6 tag was removed by treatment with TEV protease, and the KRAS protein was isolated by passing through a second Ni^2+ column followed by size exclusion chromatography. The purified KRAS proteins were loaded with GTP by incubation for 2 hours on ice with 2 mM GTP and 10 mM Ethylenediaminetetraacetic Acid, followed by addition of 10 mM MgCl2 and incubation on ice for 1 additional hour. The excess GTP was removed by overnight dialysis against buffer (12.5 mM HEPES, 75 mM NaCl, pH 7.5) at 4° C. The GTP-loaded KRAS protein were flash frozen in liquid nitrogen, then stored at −80° C. until use.
(§2) GTP-loaded KRAS proteins (1 μM) were combined with 25 μM of recombinant human cyclophilin A and 10 μM of compound in reaction buffer (12.5 mM HEPES, 75 mM NaCl, 1 mM MgCl2, 1 mM DTT, 1% DMSO, pH 7.5) pre-warmed to 37° C. At fixed time points, aliquots were removed and quenched by heating to 80° C. to denature the proteins, then centrifuged to pellet the protein precipitate. The supernatant was assessed for GTP levels using Promega GTPase-Glo™ according to manufacturer instructions. The levels of GTP as a function of incubation time were fit to a single phase exponential decay to determine the rate constant for hydrolysis activity.

[2] = test system: GTP-loaded KRAS proteins (residue 1-169 of KRAS4B); assay: as above; assay type: biochemical; conditions: all RAS mutants except those with mutations of the Q61 residue; 10 μM compound, 25 μM cyclophilin A, 37° C.
Protocol: as §1, §2

[3] = test system: complexes between KRAS proteins and the RAS-binding domain (RBD) of the RAF1 kinase; assay: Intracellular RAS-RAF complex reporter assay (nanoBRET) in U2OS cells, multiple KRAS variants; assay type: cell-based; conditions: 4 hours
Protocol: A cellular assay was used to measure complexes between KRAS proteins and the RAS-binding domain (RBD) of the RAF1 kinase by nanoluciferase bioluminescence energy transfer (nanoBRET™) U2OS cells were seeded at confluence in the 3 mL of DMEM supplemented with 10% fetal bovine serum and 1% penicillin/streptomycin (approximately 1 million cells per well). The following day, each well was transfected with 50 ng of a plasmid encoding N-terminal nanoluciferase-tagged KRAS4B and 2950 ng of a plasmid encoding a C-terminal HaloTag® RAF1 RBD (residues 51-149) using FuGENE HD reagent according to manufacturer instructions. The following day, each transfected cell pool was transferred to 36 wells of a white 96-well plate in media consistiting of OptiMem phenol-red free supplemented with 4% fetal bovine serum, 1% penicillin/streptomycin, and 100 nM of HaloTag® NanoBRET™ 618 Ligand. The following day, Vivazine™ nanoluciferase substrate and compounds were added at the indicated concentration. After 4 hours of incubation, the emitted light at 460 and 618 nm was measured using a PerkinElmer Envision plate reader. The luminescence intensity at 618 nm relative to 460 nm is proportional to the number of complexes between the KRAS protein and the RBD of RAF1, a surrogate measure of the levels of active KRAS.

[4] = target: T2, KRAS^WT-RAF1 RBD complex (Homo sapiens, UniProt P01116); assay: Intracellular RAS-RAF complex reporter assay (nanoBRET) in U2OS cells, KRAS^WT; assay type: cell-based; conditions: 4 hours
T2 construct: expressed in transfected cells; host or cells: U2OS
Protocol: A cellular assay was used to measure complexes between KRAS proteins and the RAS-binding domain (RBD) of the RAF1 kinase by nanoluciferase bioluminescence energy transfer (nanoBRET™) U2OS cells were seeded at confluence in the 3 mL of DMEM supplemented with 10% fetal bovine serum and 1% penicillin/streptomycin (approximately 1 million cells per well). […] The following day, Vivazine™ nanoluciferase substrate and compounds were added at the indicated concentration. After 4 hours of incubation, the emitted light at 460 and 618 nm was measured using a PerkinElmer Envision plate reader. The luminescence intensity at 618 nm relative to 460 nm is proportional to the number of complexes between the KRAS protein and the RBD of RAF1, a surrogate measure of the levels of active KRAS.

hydrolyzer class: RAS(ON) GTP hydrolysis rate relative to the intrinsic hydrolysis rate [1]: 8 (Compound E) Moderate | RAS GTP hydrolysis in various RAS mutants in the presence of compound [2]: increased hydrolysis | potency for inhibition of RAS-RAF complexes vs KRAS^WT, relative to the other KRAS variants [4]: modestly lower potency
Compound: CCn1c(-c2cc(N3CCN(C4CC4)CC3)cnc2[C@H](C)OC)c2c3cc(ccc31)-c1csc(n1)C[C@H](NC(=O)[C@H]1[C@@H]3COC[C@@H]31)C(=O)N1CCC[C@H](N1)C(=O)OCC(C)(C)C2 (atropisomer, axis not shown) [compound 8]
potency for inhibition of RAS-RAF complexes across multiple KRAS variants [3]: roughly similar potency
